In ChEMBL document CHEMBL3046749, “Synthesis and antimicrobial activity of novel bis-azaphenothiazines” (2013):
≈ marks a conversion by molar mass, not a printed value. Calls of active or inactive are those of the source. The rule behind the calls is not given here.

What was measured:
Assay type in all cases: functional
Pseudomonas aeruginosa [1] = assay: Antibacterial activity against Pseudomonas aeruginosa MTCC 424 after 16 hr by cup-plate method; conditions: MTCC 424, 16 h
Escherichia coli [2] = assay: Antibacterial activity against Escherichia coli MTCC 443 after 16 hr by cup-plate method; conditions: MTCC 443, 16 h
[3] = test system: Staphylococcus epidermidis; assay: Antibacterial activity against Staphylococcus epidermidis MTCC 435 after 16 hr by cup-plate method; conditions: MTCC 435, 16 h
Bacillus subtilis [4] = assay: Antibacterial activity against Bacillus subtilis MTCC 441 after 16 hr by cup-plate method; conditions: MTCC 441, 16 h
Staphylococcus aureus [5] = assay: Antibacterial activity against Staphylococcus aureus MTCC 096 after 16 hr by cup-plate method; conditions: MTCC 096, 16 h
Candida albicans [6] = assay: Antifungal activity against Candida albicans MTCC 227 at 100 ug/ml after 28 to 30 hr by cup-plate method; conditions: read-out: IZ
Aspergillus flavus [7] = assay: Antifungal activity against Aspergillus flavus MTCC 277 at 100 ug/ml after 28 to 30 hr by cup-plate method; conditions: read-out: IZ
Aspergillus fumigatus [8] = assay: Antifungal activity against Aspergillus fumigatus MTCC 343 at 100 ug/ml after 28 to 30 hr by cup-plate method; conditions: for zone of inhibition at 100 µg/mL: read-out: IZ
Aspergillus niger [9] = assay: Antifungal activity against Aspergillus niger MTCC 282 at 100 ug/ml after 28 to 30 hr by cup-plate method; conditions: for zone of inhibition at 100 µg/mL: read-out: IZ
Klebsiella pneumoniae [10] = assay: Antibacterial activity against Klebsiella pneumoniae MTCC 432 at 100 ug/ml after 16 to 18 hr by cup-plate method; conditions: read-out: IZ
Salmonella typhi = assay: Antibacterial activity against Salmonella enterica subsp. enterica serovar Typhi MTCC 733 at 100 ug/ml after 16 to 18 hr by cup-plate method; conditions: read-out: IZ
Pseudomonas aeruginosa [11] = assay: Antibacterial activity against Pseudomonas aeruginosa MTCC 424 at 100 ug/ml after 16 to 18 hr by cup-plate method; conditions: read-out: IZ
Escherichia coli [12] = assay: Antibacterial activity against Escherichia coli MTCC 443 at 100 ug/ml after 16 to 18 hr by cup-plate method; conditions: read-out: IZ
[13] = test system: Staphylococcus epidermidis; assay: Antibacterial activity against Staphylococcus epidermidis MTCC 435 at 100 ug/ml after 16 to 18 hr by cup-plate method; conditions: read-out: IZ
Bacillus subtilis [14] = assay: Antibacterial activity against Bacillus subtilis MTCC 441 at 100 ug/ml after 16 to 18 hr by cup-plate method; conditions: read-out: IZ
Staphylococcus aureus [15] = assay: Antibacterial activity against Staphylococcus aureus MTCC 096 at 100 ug/ml after 16 to 18 hr by cup-plate method; conditions: read-out: IZ
Candida albicans [16] = assay: Antifungal activity against Candida albicans MTCC 227 after 28 to 30 hr by cup-plate method
Aspergillus fumigatus [17] = assay: Antifungal activity against Aspergillus fumigatus MTCC 343 after 28 to 30 hr by cup-plate method
Aspergillus flavus [18] = assay: Antifungal activity against Aspergillus flavus MTCC 277 after 28 to 30 hr by cup-plate method
Aspergillus niger [19] = assay: Antifungal activity against Aspergillus niger MTCC 282 after 28 to 30 hr by cup-plate method
Klebsiella pneumoniae [20] = assay: Antibacterial activity against Klebsiella pneumoniae MTCC 432 after 16 hr by cup-plate method; conditions: MTCC 432, 16 h

| SMILES | MIC (Pseudomonas aeruginosa [1]) | MIC (Escherichia coli [2]) | MIC [3] | MIC (Bacillus subtilis [4]) | MIC (Staphylococcus aureus [5]) | zone of inhibition at 100 µg/mL (Candida albicans [6]) | zone of inhibition at 100 µg/mL (Aspergillus flavus [7]) | zone of inhibition at 100 µg/mL (Aspergillus fumigatus [8]) | zone of inhibition at 100 µg/mL (Klebsiella pneumoniae [10]) | zone of inhibition at 100 µg/mL (Salmonella typhi) | zone of inhibition at 100 µg/mL (Pseudomonas aeruginosa [11]) | zone of inhibition at 100 µg/mL (Escherichia coli [12]) | zone of inhibition at 100 µg/mL [13] | zone of inhibition at 100 µg/mL (Bacillus subtilis [14]) | zone of inhibition at 100 µg/mL (Staphylococcus aureus [15]) | MIC (Candida albicans [16]) | MIC (Aspergillus fumigatus [17]) | MIC (Aspergillus flavus [18]) | MIC (Aspergillus niger [19]) | MIC (Klebsiella pneumoniae [20]) | also measured |
| --- | --- | --- | --- | --- | --- | --- | --- | --- | --- | --- | --- | --- | --- | --- | --- | --- | --- | --- | --- | --- | --- |
| Clc1ccc2c(c1)Sc1cccnc1N2CCCCCCN1c2ccc(Cl)cc2Sc2cccnc21 | 25 mg/L (≈ 45.3 µM) | 50 mg/L (≈ 90.7 µM) | > 50 mg/L | 25 mg/L (≈ 45.3 µM) | 25 mg/L (≈ 45.3 µM) | 12 mm | 10 mm | 12 mm | 11 mm | 12 mm | 12 mm | 11 mm | 10 mm | 12 mm | 12 mm | 12.5 mg/L (≈ 22.7 µM) | 12.5 mg/L (≈ 22.7 µM) | > 50 mg/L | > 50 mg/L | 50 mg/L (≈ 90.7 µM) | inhibition zone (IZ) (Aspergillus niger [9]): inactive |
| C(=C\CN1c2ccccc2Sc2cccnc21)/CN1c2ccccc2Sc2cccnc21 | 12.5 mg/L (≈ 27.6 µM) | 50 mg/L (≈ 110 µM) | > 50 mg/L | > 50 mg/L | 12.5 mg/L (≈ 27.6 µM) | 12 mm | 12 mm | 13 mm | 11 mm | 11 mm | 12 mm | 11 mm | 10 mm | 10 mm | 12 mm | 12.5 mg/L (≈ 27.6 µM) | 6.25 mg/L (≈ 13.8 µM) | 12.5 mg/L (≈ 27.6 µM) | 12.5 mg/L (≈ 27.6 µM) | 50 mg/L (≈ 110 µM) | zone of inhibition at 100 µg/mL (Aspergillus niger [9]): 12 mm |
| Fc1ccc2c(c1)Sc1cccnc1N2CCCCCCN1c2ccc(F)cc2Sc2cccnc21 | 6.25 mg/L (≈ 12.1 µM) | 12.5 mg/L (≈ 24.1 µM) | 12.5 mg/L (≈ 24.1 µM) | 25 mg/L (≈ 48.2 µM) | 25 mg/L (≈ 48.2 µM) | 13 mm | 12 mm | 11 mm | 11 mm | 12 mm | 13 mm | 12 mm | 12 mm | 12 mm | 12 mm | 6.25 mg/L (≈ 12.1 µM) | 25 mg/L (≈ 48.2 µM) | 12.5 mg/L (≈ 24.1 µM) | 50 mg/L (≈ 96.4 µM) | 50 mg/L (≈ 96.4 µM) | zone of inhibition at 100 µg/mL (Aspergillus niger [9]): 10 mm |
| Clc1ccc(COC(Cn2ccnc2)c2ccc(Cl)cc2Cl)c(Cl)c1 (centres undefined) [MICONAZOLE] |  |  |  |  |  | 19 mm | 17 mm | 15 mm |  |  |  |  |  |  |  | 6.25 mg/L (≈ 15 µM) | 6.25 mg/L (≈ 15 µM) | 12.5 mg/L (≈ 30 µM) | 6.25 mg/L (≈ 15 µM) |  | zone of inhibition at 100 µg/mL (Aspergillus niger [9]): 18 mm |
| Brc1ccc2c(c1)Sc1cccnc1N2C/C=C/CN1c2ccc(Br)cc2Sc2cccnc21 | > 50 mg/L | 12.5 mg/L (≈ 20.5 µM) | > 50 mg/L | 25 mg/L (≈ 41 µM) | 25 mg/L (≈ 41 µM) | 10 mm | 11 mm | 12 mm | 11 mm | 11 mm | 10 mm | 12 mm | 11 mm | 11 mm | 12 mm | > 50 mg/L | 12.5 mg/L (≈ 20.5 µM) | > 50 mg/L | > 50 mg/L | 50 mg/L (≈ 81.9 µM) | inhibition zone (IZ) (Aspergillus niger [9]): inactive |
| c1ccc2c(c1)Sc1cccnc1N2CCCCCCN1c2ccccc2Sc2cccnc21 | 50 mg/L (≈ 104 µM) | 12.5 mg/L (≈ 25.9 µM) | 6.25 mg/L (≈ 12.9 µM) | 25 mg/L (≈ 51.8 µM) | 6.25 mg/L (≈ 12.9 µM) | 12 mm | 12 mm | 10 mm | 12 mm | 12 mm | 11 mm | 12 mm | 13 mm | 12 mm | 13 mm | 12.5 mg/L (≈ 25.9 µM) | > 50 mg/L | 25 mg/L (≈ 51.8 µM) | 25 mg/L (≈ 51.8 µM) | 25 mg/L (≈ 51.8 µM) | zone of inhibition at 100 µg/mL (Aspergillus niger [9]): 11 mm |
| CC(=O)Nc1ccccc1Sc1ncccc1[N+](=O)[O-] | 12.5 mg/L (≈ 43.2 µM) | > 50 mg/L | 25 mg/L (≈ 86.4 µM) | 25 mg/L (≈ 86.4 µM) | > 50 mg/L | 12 mm | 12 mm |  | 11 mm | 12 mm | 12 mm | 10 mm | 11 mm | 12 mm | 11 mm | 12.5 mg/L (≈ 43.2 µM) | > 50 mg/L | 12.5 mg/L (≈ 43.2 µM) | > 50 mg/L | 50 mg/L (≈ 173 µM) | inhibition zone (IZ) (Aspergillus fumigatus [8]): inactive; inhibition zone (IZ) (Aspergillus niger [9]): inactive |
| CC(=O)Nc1ccc(Br)cc1Sc1ncccc1[N+](=O)[O-] | 6.25 mg/L (≈ 17 µM) | > 50 mg/L | 6.25 mg/L (≈ 17 µM) | 25 mg/L (≈ 67.9 µM) | 25 mg/L (≈ 67.9 µM) | 13 mm | 12 mm | 14 mm | 13 mm | 11 mm | 14 mm | 11 mm | 13 mm | 12 mm | 12 mm | 6.25 mg/L (≈ 17 µM) | 6.25 mg/L (≈ 17 µM) | 12.5 mg/L (≈ 33.9 µM) | 6.25 mg/L (≈ 17 µM) | 6.25 mg/L (≈ 17 µM) | zone of inhibition at 100 µg/mL (Aspergillus niger [9]): 16 mm |
| CC(=O)Nc1ccc(F)cc1Sc1ncccc1[N+](=O)[O-] | 6.25 mg/L (≈ 20.3 µM) | 6.25 mg/L (≈ 20.3 µM) | 25 mg/L (≈ 81.4 µM) | 25 mg/L (≈ 81.4 µM) | 12.5 mg/L (≈ 40.7 µM) | 14 mm | 10 mm | 16 mm | 11 mm | 12 mm | 14 mm | 14 mm | 12 mm | 12 mm | 13 mm | 6.25 mg/L (≈ 20.3 µM) | 6.25 mg/L (≈ 20.3 µM) | > 50 mg/L | 6.25 mg/L (≈ 20.3 µM) | > 50 mg/L | zone of inhibition at 100 µg/mL (Aspergillus niger [9]): 18 mm |
| Brc1ccc2c(c1)Sc1cccnc1N2CCCCN1c2ccc(Br)cc2Sc2cccnc21 | 12.5 mg/L (≈ 20.4 µM) | 12.5 mg/L (≈ 20.4 µM) | 25 mg/L (≈ 40.8 µM) | 50 mg/L (≈ 81.6 µM) | 12.5 mg/L (≈ 20.4 µM) | 11 mm | 10 mm | 12 mm | 11 mm | 10 mm | 12 mm | 12 mm | 11 mm | 11 mm | 12 mm | 50 mg/L (≈ 81.6 µM) | 12.5 mg/L (≈ 20.4 µM) | > 50 mg/L | 50 mg/L (≈ 81.6 µM) | 50 mg/L (≈ 81.6 µM) | zone of inhibition at 100 µg/mL (Aspergillus niger [9]): 11 mm |
| CC(=O)Nc1ccc(Cl)cc1Sc1ncccc1[N+](=O)[O-] | 6.25 mg/L (≈ 19.3 µM) | 12.5 mg/L (≈ 38.6 µM) | 6.25 mg/L (≈ 19.3 µM) | 25 mg/L (≈ 77.2 µM) | 25 mg/L (≈ 77.2 µM) | 14 mm | 12 mm | 12 mm | 13 mm | 12 mm | 14 mm | 12 mm | 13 mm | 12 mm | 12 mm | 6.25 mg/L (≈ 19.3 µM) | 12.5 mg/L (≈ 38.6 µM) | 25 mg/L (≈ 77.2 µM) | 6.25 mg/L (≈ 19.3 µM) | 6.25 mg/L (≈ 19.3 µM) | zone of inhibition at 100 µg/mL (Aspergillus niger [9]): 14 mm |
| Fc1ccc2c(c1)Sc1cccnc1N2CCCCN1c2ccc(F)cc2Sc2cccnc21 | > 50 mg/L | 25 mg/L (≈ 51 µM) | 12.5 mg/L (≈ 25.5 µM) | 12.5 mg/L (≈ 25.5 µM) | 25 mg/L (≈ 51 µM) | 10 mm | 12 mm | 10 mm | 11 mm | 12 mm | 10 mm | 11 mm | 12 mm | 12 mm | 11 mm | > 50 mg/L | > 50 mg/L | 25 mg/L (≈ 51 µM) | 50 mg/L (≈ 102 µM) | 50 mg/L (≈ 102 µM) | zone of inhibition at 100 µg/mL (Aspergillus niger [9]): 11 mm |
